The values below come from ChEMBL document CHEMBL1201862, “PubChem BioAssay data set” (2004).

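Step 1: Grow cells in 96-well plates. Step 2: Expose to compound for 48 hours at 5 concentrations. Step 3: Interpolate endpoints linearly; if unreached, use highest concentration. GI50 is the concentration that inhibits growth by half.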 The source made the active and inactive calls. Cut-off read from the data, not from the text of the source: active = GI50 up to about 1.1 µM and inactive = higher. Bounds are passed on as bounds.

Among the test systems are 786-0; ACHN; COLO 205; HCC 2998; HL-60; HOP-92; M14; MCF7; MDA-MB-435; NCI-H23; SF-268; SF-295; SK-MEL-28; SK-MEL-2; SK-MEL-5; SK-OV-3; SN12C; SR; T47D; UO-31.
Holding throughout (experiment): NCI tumour cell line growth inhibition, 48 h

As for `CN(C)C(=S)NC(=S)Nc1ccc2ccccc2c1`, the GI50 in the assay on 786-0 was 12.8 µM (inactive); with ACHN, 18.6 µM (inactive); in the assay with COLO 205 it was 13.7 µM (inactive); with HCC 2998, 15.5 µM (inactive); in the assay on HL-60 it was 5.69 µM (inactive); with HOP-92, 17 µM (inactive). For the same compound, the GI50 with M14 was 12.7 µM (inactive); in the assay on MCF7, 10.3 µM (inactive); with MDA-MB-435, 18.8 µM (inactive); in the assay with NCI-H23, 9.64 µM (inactive); in the assay with SF-268, 10.3 µM (inactive); in the assay with SF-295 it was 4.55 µM (inactive). In addition, the GI50 in the assay with SK-MEL-28 is 14.5 µM (inactive); with SK-MEL-2, 13.9 µM (inactive); in the assay with SK-MEL-5 it was 7.18 µM (inactive); in the assay with SK-OV-3, 24.8 µM (inactive); in the assay on SN12C it was 2.69 µM (inactive); in the assay with SR it was 3.97 µM (inactive). The results for the GI50 in the assay with T47D and in the assay with UO-31 were 9.55 µM (inactive) and 16.1 µM (inactive), respectively.

Regarding `O=C1C/C(=C\O)C(=O)c2ccccc2N1`, the GI50 in the assay with 786-0, in the assay with ACHN, in the assay with COLO 205, in the assay with HCC 2998, in the assay on HL-60 and in the assay with HOP-92 was > 100 µM (inactive) in each case. The GI50 in the assay on M14, in the assay with MCF7, in the assay on MDA-MB-435, in the assay with NCI-H23, with SF-268 and in the assay on SF-295 was > 100 µM (inactive) throughout. Further, the GI50 in the assay with SK-MEL-28, with SK-MEL-2, with SK-MEL-5, in the assay with SK-OV-3, in the assay on SN12C and in the assay on SR was > 100 µM (inactive) in each case. Further, the GI50 is 61.8 µM (inactive) in the assay with T47D and > 100 µM (inactive) in the assay on UO-31.

As to `Cc1cc(C)nc(NS(=O)(=O)c2ccc(Nc3c4ccccc4nc4c(C(=O)NC(CO)(CO)CO)cccc34)cc2)n1`, the GI50 was 29 µM (inactive) in the assay on 786-0; 34 µM (inactive) in the assay on ACHN; 20.1 µM (inactive) with COLO 205; 16 µM (inactive) in the assay with HCC 2998; 31.6 µM (inactive) with HL-60; 23.6 µM (inactive) in the assay on HOP-92. In addition, the GI50 in the assay on M14 was 37.2 µM (inactive); in the assay with MCF7, 25.8 µM (inactive); with MDA-MB-435, 24.9 µM (inactive); in the assay with NCI-H23, 33.7 µM (inactive); in the assay with SF-268 it was 29.5 µM (inactive); in the assay with SF-295, 30.8 µM (inactive). Besides, the GI50 with SK-MEL-28 was 27.1 µM (inactive); in the assay on SK-MEL-2, 20.8 µM (inactive); with SK-MEL-5, 20.6 µM (inactive); in the assay on SK-OV-3 it was 31.9 µM (inactive); in the assay with SN12C, 29.6 µM (inactive); in the assay with SR it was 23.2 µM (inactive). Further, the GI50 in the assay with T47D is 37.8 µM (inactive); with UO-31 it was 85.1 µM (inactive).

`C=C(Cl)C(Cl)(CCl)CCC(Br)C(C)(C)Br` (stereo not given): the GI50 in the assay with 786-0, in the assay with ACHN, in the assay with COLO 205, with HCC 2998, with HL-60 and in the assay on HOP-92 was > 10 µM (inactive) each time. Moreover, the GI50 in the assay with M14, in the assay on MCF7, in the assay with MDA-MB-435, with NCI-H23, in the assay with SF-268 and in the assay on SF-295 was > 10 µM (inactive) each time. Also, the GI50 in the assay on SK-MEL-28, with SK-MEL-2, with SK-MEL-5, in the assay with SK-OV-3, in the assay with SN12C and in the assay with SR was > 10 µM (inactive) each time. Also, the GI50 in the assay with T47D and in the assay on UO-31 was > 10 µM (inactive) in each case.

For the compound `O=C(/C=C/c1ccc2ccccc2c1)NCc1ccc(C(=O)NCCc2ccccc2)cc1`, the GI50 in the assay on 786-0 is 64.3 µM (inactive); in the assay on ACHN, > 100 µM (inactive); in the assay on COLO 205, > 100 µM (inactive); with HCC 2998 it was > 100 µM (inactive); in the assay on HL-60, 43.7 µM (inactive); in the assay on HOP-92, > 100 µM (inactive). Besides, the GI50 with M14, in the assay with MCF7, with MDA-MB-435, in the assay with NCI-H23, in the assay with SF-268 and in the assay with SF-295 was > 100 µM (inactive) in each case. Besides, the GI50 in the assay on SK-MEL-28, in the assay with SK-MEL-2, in the assay with SK-MEL-5, in the assay with SK-OV-3, in the assay with SN12C and in the assay with SR was > 100 µM (inactive) throughout. Further, the GI50 in the assay with T47D was 65.5 µM (inactive); in the assay on UO-31 it was > 100 µM (inactive).

With `CCOC(=O)/C=C(/C(=O)OCC)n1ccc(=O)n(Cc2cnnn2COCCOC(C)=O)c1=O`, the GI50 in the assay on 786-0 is 10 µM (inactive); in the assay on ACHN, 8.73 µM (inactive); in the assay on COLO 205, 2.92 µM (inactive); with HCC 2998 it was 16.2 µM (inactive); in the assay with HL-60, 0.018 µM (active); in the assay on HOP-92, 2.08 µM (inactive). Moreover, the GI50 is 17.1 µM (inactive) in the assay with M14; 10.4 µM (inactive) in the assay on MCF7; 16.6 µM (inactive) in the assay with MDA-MB-435; 17.1 µM (inactive) in the assay on NCI-H23; 20 µM (inactive) with SF-268; > 100 µM (inactive) with SF-295. Also, the GI50 in the assay with SK-MEL-28 is 16.3 µM (inactive); with SK-MEL-2, 19.9 µM (inactive); in the assay on SK-MEL-5 it was 19.1 µM (inactive); with SK-OV-3, > 100 µM (inactive); in the assay on SN12C, 22.1 µM (inactive); in the assay with SR it was 13.4 µM (inactive). Also, the GI50 in the assay on T47D was 9.57 µM (inactive); with UO-31, 16 µM (inactive).

Take `COc1ccc(C(=C2C(=O)OC(=O)C2=C(C)C)c2ccc(OC)cc2)cc1`: the GI50 with 786-0 is > 100 µM (inactive); in the assay on ACHN, > 100 µM (inactive); with COLO 205 it was > 100 µM (inactive); in the assay on HCC 2998, > 100 µM (inactive); in the assay on HL-60, 31.2 µM (inactive); in the assay on HOP-92, > 100 µM (inactive). Also, the GI50 is 85.1 µM (inactive) with M14; > 100 µM (inactive) in the assay on MCF7; > 100 µM (inactive) in the assay with MDA-MB-435; > 100 µM (inactive) in the assay on NCI-H23; > 100 µM (inactive) in the assay on SF-268; 73.5 µM (inactive) in the assay on SF-295. The GI50 with SK-MEL-28 was > 100 µM (inactive); in the assay with SK-MEL-2, 53.8 µM (inactive); with SK-MEL-5, > 100 µM (inactive); with SK-OV-3, > 100 µM (inactive); with SN12C it was > 100 µM (inactive); in the assay with SR, 38.5 µM (inactive). For the same compound, the GI50 in the assay on T47D and in the assay on UO-31 was > 100 µM (inactive) in each case.

Turning to `COC(=O)CC(C#N)(OP1(=O)OC(c2ccccc2)C(C)N1C)c1ccccc1` (stereo not given), the GI50 with 786-0 is 24 µM (inactive); in the assay with ACHN it was 25.9 µM (inactive); in the assay on COLO 205, 34.5 µM (inactive); with HCC 2998, 16.6 µM (inactive); in the assay with HL-60 it was 23.8 µM (inactive); in the assay on HOP-92, 32.3 µM (inactive). Also, the GI50 was 31.3 µM (inactive) in the assay on M14; 28.2 µM (inactive) in the assay with MCF7; 21.4 µM (inactive) in the assay on MDA-MB-435; 31.5 µM (inactive) in the assay on NCI-H23; 30.3 µM (inactive) in the assay on SF-268; 42 µM (inactive) in the assay on SF-295. In addition, the GI50 with SK-MEL-28 was 31.1 µM (inactive); with SK-MEL-2, 27.2 µM (inactive); in the assay on SK-MEL-5 it was 64.3 µM (inactive); with SK-OV-3, 40.5 µM (inactive); in the assay on SN12C, 29.6 µM (inactive); in the assay on SR, 25.9 µM (inactive). For the same compound, the GI50 was 28.1 µM (inactive) in the assay on T47D and 12.1 µM (inactive) with UO-31.

Regarding `CC1=NN(c2nc(N)nc(/C(C#N)=C/c3cccn3-c3cc(Cl)cc(Cl)c3)n2)C(C)(C)C1`, the GI50 is > 100 µM (inactive) in the assay with 786-0; > 100 µM (inactive) in the assay on ACHN; > 100 µM (inactive) in the assay with COLO 205; > 100 µM (inactive) in the assay with HCC 2998; 14.8 µM (inactive) in the assay with HL-60; > 100 µM (inactive) in the assay on HOP-92. Also, the GI50 was > 100 µM (inactive) with M14; > 100 µM (inactive) in the assay on MCF7; > 100 µM (inactive) with MDA-MB-435; > 100 µM (inactive) in the assay with NCI-H23; 15.5 µM (inactive) in the assay with SF-268; > 100 µM (inactive) with SF-295. Also, the GI50 was > 100 µM (inactive) in the assay with SK-MEL-28; > 100 µM (inactive) in the assay with SK-MEL-2; > 100 µM (inactive) in the assay with SK-MEL-5; > 100 µM (inactive) in the assay with SK-OV-3; 35.2 µM (inactive) in the assay with SN12C; 1.42 µM (inactive) in the assay with SR. For the same compound, the GI50 in the assay with T47D and with UO-31 was > 100 µM (inactive) in each case.

In the case of `CC(=O)OCc1ccc2oc(=O)c(C(=O)Oc3ccccc3)cc2c1`, the GI50 is 20.3 µM (inactive) in the assay with 786-0; 91.6 µM (inactive) in the assay with ACHN; 30.4 µM (inactive) in the assay with COLO 205; > 100 µM (inactive) in the assay on HCC 2998; 52.1 µM (inactive) with HL-60; 20.3 µM (inactive) in the assay with HOP-92. Also, the GI50 in the assay on M14 is > 100 µM (inactive); in the assay on MCF7 it was 30.3 µM (inactive); in the assay on MDA-MB-435 it was 61.9 µM (inactive); in the assay on NCI-H23, 32.6 µM (inactive); in the assay on SF-268, 55.7 µM (inactive); with SF-295 it was > 100 µM (inactive). Also, the GI50 in the assay with SK-MEL-28 was 86.9 µM (inactive); in the assay with SK-MEL-2, > 100 µM (inactive); in the assay on SK-MEL-5 it was > 100 µM (inactive); with SK-OV-3, > 100 µM (inactive); in the assay with SN12C, 30.1 µM (inactive); in the assay on SR, 33.3 µM (inactive). In addition, the GI50 with T47D was 17.6 µM (inactive); with UO-31, 35.2 µM (inactive).
